These results are taken from US20230148417A1, “FUSED BICYCLIC DERIVATIVE, PREPARATION METHOD THEREFOR, AND PHARMACEUTICAL USE THEREOF” (Jiangsu Hengrui Pharmaceuticals Co., Ltd., priority 2020, published 2023).

This series can be described thus: Pharmacokinetic study in rats, administration by injection (i.v.). Type of series: in vivo. Conditions: both sexes, rat, iv, SD rats, 1 mg/kg, plasma; for Vd: read-out: Apparent volume of distribution Vz; for AUC(0-t): read-out: Area under curve AUC0-t; for clearance: read-out: Clearance CL; for half-life: read-out: Half-life T1/2 (converted); for MRT: read-out: Residence time MRT. On the procedure:
The drug concentration in the plasma of the test animals (SD rats) at different time points after injection (i.v.) of the test compounds was determined by using an LC/MS/MS method. The pharmacokinetic performance in rats of the compounds of present disclosure was studied and their pharmacokinetic profile was evaluated.
8 SD rats, half male and half female, divided into 2 groups, purchased from Vital River Laboratory Animal Technology Co., Ltd.
A certain amount of the compound was weighed out, and 5% of DMSO, 5% of Tween 80 and 90% of normal saline were added to obtain a colorless and clear solution.
The rats were subjected to administration by injection, the administration dose was 1 mg/kg, and the administration volume was 5 mL/kg.
The test compound was administered by injection to the rats, and 0.2 mL of blood was collected from the orbit before administration and 5 min, 0.25 h, 0.5 h, 1.0 h, 2.0 h, 4.0 h, 8.0 h, 11.0 h and 24.0 h after administration. The blood was placed in an EDTA-K2 anticoagulation tube and centrifuged at 10,000 rpm for 1 min (4° C.), and plasma was separated out within 1 h and then stored at −20° C. for testing. The process from blood sampling to centrifugation was performed under an ice bath.
The content of the test compounds at different concentrations in the rat plasma after administration by injection was determined: 25 μL of rat plasma at each time point after administration was mixed with 50 μL of internal standard solution (camptothecin, 100 ng/mL) and 200 μL of acetonitrile, and the mixture was vortexed for 5 min and centrifuged for 10 min at 3700 rpm. 3 μL of supernatant of the plasma sample was taken for LC/MS/MS analysis.

For the molecule `CC(C)NC[C@@H](C(=O)N1C2CCC1CN(c1ncnc3c1C(C)(C)C(=O)N3)C2)c1ccc(Cl)cc1` [Example 2], the Vd is 13 L/kg, the AUC(0-t) was determined as 221 ng·h/mL, the clearance stood at 75.4 mL/min/kg and the half-life is 2 h. The MRT stood at 2.6 h.

For `CC(C)NC[C@@H](C(=O)N1[C@@H]2CC[C@H]1CN(c1ncnc3c1[C@H](C)C[C@H]3O)C2)c1ccc(Cl)cc1` [Example 4, (S)-2-(4-chlorophenyl)-1-((1R,5S)-3-((5R,7R)-7-hydroxy-5-methyl-6,7-dihydro-5H-cyclopenta[d]pyrimidin-4-yl)-3,8-diazabicyclo[3.2.1]octan-8-yl)-3-(isopropylamino)propan-1-one], the Vd came out at 16.3 L/kg, the AUC(0-t) is 205 ng·h/mL, the clearance was 82.9 mL/min/kg and the half-life is 2.5 h. For the same molecule, the MRT came to 2.2 h.

Usually clearance stands for a measure of how efficiently the substance is removed, as volume per time. The MRT is a mean duration of stay, worked out from the concentration-time curve.
